This note sets out measurements from US10815276B2, “Cell penetrating peptides and methods of making and using thereof” (Entrada Therapeutics, Inc., priority 2014, dated 2020).

The target of one series is CAL-PDZ domain (Homo sapiens, UniProt Q9HD26). As to the kind of experiment: Fluorescence anisotropy binding to CAL-PDZ. The conditions noted are these: absence of a reducing agent. The procedure: The full fluorescence anisotropy (FA) titration experiment was performed by incubating 100 nM fluorophore-labeled peptidyl ligands with varying concentrations (0-6 μM) of CAL-PDZ (Cushing, P R et al. […] The FA values were measured on a Molecular Devices Spectramax M5 spectrofluorimeter, with excitation and emission wavelengths at 485 nm and 525 nm, respectively. Equilibrium dissociation constants (KD) were determined by plotting the fluorescence anisotropy values as a function of CAL-PDZ concentration. The titration curves were fitted to the following equation, which assumes a 1:1 binding stoichiometry
where Y is the measured anisotropy at a given CAL-PDZ concentration x; L is the bicyclic peptide concentration; Qb/Qf is the correction fact for dye-protein interaction; Amax is the maximum anisotropy when all the peptides are bound to CAP-PDZ, while Amin is the minimum anisotropy when all the peptides are free.
On the technique in general: Polarisation of emitted light reports the rotation of a fluorescent probe.

The test system of series [1] is HeLa cells. As to the kind of experiment: Live-cell confocal microscopy of FITC-labeled peptides. Type of series: cell-based, human. The conditions noted are these: 5 μM. The procedure: To detect peptide internalization, 1 mL of HeLa cell suspension (5×10^4 cells) was seeded in a 35 mm glass-bottomed microwell dish (MatTek) and cultured overnight. Cells were gently washed with DPBS twice and treated with FITC labeled peptides (5 μM) and dextran^Rho (0.5 mg mL^−1) in phenol-red free DMEM containing 1% serum at 37° C. for 1 h in the presence of 5% CO2. After removal of the medium, the cells were gently washed with DPBS twice and incubated with 5 μM DRAQS in DPBS for 10 min. The cells were again washed with DPBS twice and imaged on a Visitech Infinity 3 Hawk 2D-array live cell imaging confocal microscope. Images were captured under the same parameters and adjusted under the same setting using MetaMorph (Molecular Devices).

The subject of series [2] is Bronchial epithelial CFBE cells. As to the kind of experiment: Immunofluorescent staining of ΔF508-CFTR. Type of series: cell-based. The conditions noted are these: 10 μM Corr-4a and 50 μM unlabeled peptide 8. On the procedure:
After the treatments, cells were fixed in cold methanol for 20 min. The slides were then incubated in 1% BSA/PBS for 10 min, followed by incubation at 37° C. for 1 h with mouse anti-human monoclonal CFTR antibody (R&D Systems). Thereafter, the slides were incubated at 37° C. for 45 min with Alexa Fluor® 488-conjugated anti-mouse IgG2a secondary antibody. Cells were visualized on a Leica TCS SP2 AOBS confocal laser scanning microscope. All measurements were conducted in a double-blinded manner by two independent investigators.

For another series, the system named is ΔF508-CFTR CFBE cells. As to the kind of experiment: SPQ intracellular chloride concentration assay. The format is cell-based. The conditions noted are these: 20 μM VX809 and 50 μM peptide 8. On the procedure:
A SPQ (6-Methoxy-N-(3-sulfopropyl)quinolinium) assay was utilized to estimate the transport activity of ΔF508-CFTR activity in CFBE cells, as the fluorescence of SPQ is negatively correlated with increasing concentration of intracellular chloride (Illsley, N P and Verkman, A S. Biochemistry 1987, 26, 1215). CFBE cells were grown on 96-well plate, which was pre-coated with 1 mg/ml human fibronectin, 3 mg/ml collagen I bovine, and 1 mg/ml bovine serum albumin, using DMEM media supplemented with L-glutamine and 10% FBS. […] Cells were then loaded with SPQ using hypotonic shock at 37° C. for 15 min with 10 mM SPQ containing 1:1 (v/v) Opti-MEM/water solution. The cells were then washed and incubated twice for 10 min with fluorescence quenching NaI buffer (130 mM NaI, 5 mM KNO3, 2.5 mM Ca(NO3)2, 2.5 mM Mg(NO3)2, 10 mM D-glucose, 10 mM N-(2-hydroxyethyl) piperazine-N′-(2-ethanesulfonic) acid (HEPES, pH 7.4)). […] Fluorescence non-specific to CFTR-mediated iodide efflux was measured by incubating the cells with the activation cocktail and the CFTR specific inhibitor GlyH101 (10 μM). The effects of CAL-PDZ inhibitors were evaluated by the fluorescence increasing rate above the basal level. The fluorescence of dequenched SPQ was measured using the plate reader VICTOR X3 (Perkin Elmer) with excitation wavelength at 350 nm and DAPI emission filter. […]

Series [3] has as its system HeLa cells. Nature of the series: MTT proliferation assay with Pin1 inhibitors. The format is cell-based, human. The conditions noted are these: MTT. On the procedure:
HeLa cells (100 μL/each well, 5×10^4 cells/mL) were seeded in a 96-well culture plate and allowed to grow overnight in DMEM supplemented with 10% FBS. […] After that, 10 μL of a MTT stock solution (5 mg/mL) was added into each well. The plate was incubated at 37° C. for 4 h and 100 μL of SDS-HCl solubilizing solution was added into each well, followed by thorough mixing. The plate was incubated at 37° C. overnight and the absorbance of the formazan product was measured at 570 nm on a Molecular Devices Spectramax M5 plate reader. Each experiment was performed in triplicates and the cells untreated with peptide were used as control.
(In general: Tetrazolium assays rely on reduction of a dye to a coloured formazan, in cell work by metabolically active cells.)

For another series, the target named is T1, PTP1B (Homo sapiens, UniProt P18031).
T1 construct: The gene coding for the catalytic domain of PTP1B (amino acids 1-321) was amplified; made in house; host or cells: prokaryotic vector pET-22b(+)-ybbR
As to the kind of experiment: PTP inhibition assay (pNPP). Type of series: biochemical. The conditions noted are these: monocyclic peptide inhibitors. The procedure:
(§1) PTP assays were performed in a quartz microcuvette (total volume 150 μL). The reaction mixture contains 100 mM Tris-HCl, pH 7.4, 50 mM NaCl, 2 mM EDTA, 1 mM TCEP, 0-1 μM of PTP inhibitor, and 500 μM para-nitrophenyl phosphate (pNPP). The enzymatic reaction was initiated by the addition of PTP (final concentration 15-75 nM) and monitored continuously at 405 nm on a UV-VIS spectrophotometer. Initial rates were calculated from the reaction progress curves (typically <60 s). The half-maximal inhibition constant (IC50) was defined as the concentration of an inhibitor that reduced the enzyme activity to 50% and was obtained by plotting the rates (V) against the inhibitor concentration [I] and fitting the data against the equation
[formula] where V0 is the enzymatic reaction rate in the absence of inhibitor. […] The reaction rate (V) was plotted against the pNPP concentration ([S]) and fitted against the equation
[formula] to obtain the Michaelis constant K. The Ki value was obtained by plotting the K values against the inhibitor concentration [I] and fitted to equation
[formula] where K0 is the Michaelis constant in the absence of inhibitor ([I]=0).

In the next series the test system is A549 lung cancer cells. As to the kind of experiment: Live-cell confocal microscopy of FITC-labeled PTP1B inhibitors. The format is cell-based, human. The conditions noted are these: 5 μM FITC-labeled inhibitor, 2 h. The procedure:
Approximately 5×10^4 A549 cells were seeded in 35-mm glass-bottomed microwell dish (MatTek) containing 1 mL of media and cultured for one day. A549 cells were gently washed with DPBS once and treated with the FITC-labeled PTP1B inhibitors (5 μM), dextran^Rho (1 mg mL^−1) in growth media for 2 h at 37° C. in the presence of 5% CO2. The peptide-containing media was removed and the cells were washed with DPBS three times and incubated for 10 min in 1 mL of DPBS containing 5 μM DRAQS. The cells were again washed with DPBS twice. Then the cells were imaged on a Visitech Infinity 3 Hawk 2D-array live cell imaging confocal microscope (with a 60× oil immersion lens) at 37° C. in the presence of 5% CO2. Live-cell confocal microscopic imaging of HEK293 cells after treatment with FITC-labeled Pin1 inhibitors were similarly conducted.

For another series, the target named is HePTP (Homo sapiens, UniProt P35236). Nature of the series: PTP inhibition assay (pNPP). Type of series: biochemical. The conditions noted are these: 1 μM inhibitor. On the procedure:
as §1

For a further series, the target named is PTPH1 (Homo sapiens, UniProt P26045). As to the kind of experiment: PTP inhibition assay (pNPP). Type of series: biochemical. The conditions noted are these: 1 μM inhibitor. The procedure: as §1
The target in another series is PTPRC (Homo sapiens, UniProt P08575). Nature of the series: PTP inhibition assay (pNPP). The conditions noted are these: 1 μM inhibitor. Type of series: biochemical. On the procedure: as §1
Another series deals with PTPRO (Homo sapiens, UniProt Q16827). As to the kind of experiment: PTP inhibition assay (pNPP). Type of series: biochemical. The conditions noted are these: 1 μM inhibitor. On the procedure: as §1
For another series, the target named is SHP1 (Homo sapiens, UniProt P29350). Nature of the series: PTP inhibition assay (pNPP). Type of series: biochemical. The conditions noted are these: 1 μM inhibitor; read-out: Inhibition of SHP-1. The procedure: as §1
Series [4] can be described thus: Serum stability test (human serum). The format is in vitro ADME. The conditions noted are these: 25% human serum (supernatant after centrifugation), 24 h at 37° C., read-out: Degradation in human serum. On the procedure: The stability tests were carried by modifying a previously reported procedure (Nguyen, L T et al. PLoS One 2010, 5, e12684). Diluted human serum (25%) was centrifuged at 15,000 rpm for 10 min, and the supernatant was collected. A peptide stock solution was diluted into the supernatant to a final concentration of 5 μM and incubated at 37° C. At various time points (0-24 h), 200-μL aliquots were withdrawn and mixed with 50 μL of 15% trichloroacetic acid and incubated at 4° C. overnight. The final mixture was centrifuged at 15,000 rpm for 10 min in a microcentrifuge, and the supernatant was analyzed by reversed-phase HPLC equipped with a C18 column. The amount of remaining peptide (%) was determined by integrating the area underneath the peptide peak (monitored at 214 nm) and comparing with that of the control reaction (no serum).

Usually IC50 stands for the point on the concentration scale where inhibition reaches its midpoint. A low value points to inhibition by little substance. As a reminder, the inhibition is the share of the control response that was lost under treatment.

The structures appear in SMILES notation. Starred links: 1 amine or outer side, 2 acyl side, 3 side chain; linkers in the order of their positions; H or OH if unused. Positions of bridges follow the written chain, without caps; N, C: chain ends. Non-standard residues stand in square brackets, D forms with d. Residues, ends and D or L forms follow the SMILES beside them. Trimesoyl = O=C(c1cc(C(=O)[*:2])cc(C(=O)[*:3])c1)[*:1]; F2Pmp = N[C@@H](Cc1ccc(C(F)(F)P(=O)(O)O)cc1)C(=O)O; 2Nal = N[C@@H](Cc1ccc2ccccc2c1)C(=O)O; Phg = N[C@H](C(=O)O)c1ccccc1; Pip = O=C(O)[C@@H]1CCCCN1; Dap = NC[C@H](N)C(=O)O

PTPH1, sequence (P26045 whole entry, species assumed): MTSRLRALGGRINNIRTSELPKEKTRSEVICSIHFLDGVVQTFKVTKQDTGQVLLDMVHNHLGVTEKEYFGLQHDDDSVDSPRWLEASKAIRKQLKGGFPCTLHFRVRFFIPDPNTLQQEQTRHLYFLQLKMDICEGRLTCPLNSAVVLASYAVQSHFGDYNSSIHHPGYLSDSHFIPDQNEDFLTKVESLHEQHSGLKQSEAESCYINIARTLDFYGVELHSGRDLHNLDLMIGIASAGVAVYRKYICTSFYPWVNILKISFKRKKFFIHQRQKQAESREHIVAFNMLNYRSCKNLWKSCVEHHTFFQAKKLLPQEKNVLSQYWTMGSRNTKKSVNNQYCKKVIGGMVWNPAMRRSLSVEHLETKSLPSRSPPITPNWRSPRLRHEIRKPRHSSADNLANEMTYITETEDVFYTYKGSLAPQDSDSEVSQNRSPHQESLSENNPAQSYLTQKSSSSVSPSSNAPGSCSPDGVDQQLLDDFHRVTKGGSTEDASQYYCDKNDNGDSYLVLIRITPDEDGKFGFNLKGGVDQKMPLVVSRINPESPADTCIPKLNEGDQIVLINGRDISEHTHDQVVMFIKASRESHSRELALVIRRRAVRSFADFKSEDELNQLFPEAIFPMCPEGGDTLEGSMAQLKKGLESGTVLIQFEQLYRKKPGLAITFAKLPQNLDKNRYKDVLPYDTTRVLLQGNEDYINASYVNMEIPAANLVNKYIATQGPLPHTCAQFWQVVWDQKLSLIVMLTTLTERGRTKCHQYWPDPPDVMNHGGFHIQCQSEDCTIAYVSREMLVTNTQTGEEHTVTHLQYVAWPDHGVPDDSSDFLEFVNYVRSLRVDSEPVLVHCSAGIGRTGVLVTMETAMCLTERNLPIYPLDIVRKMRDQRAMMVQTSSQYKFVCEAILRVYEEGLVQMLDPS
PTPRC, sequence (P08575 26-1306, species assumed): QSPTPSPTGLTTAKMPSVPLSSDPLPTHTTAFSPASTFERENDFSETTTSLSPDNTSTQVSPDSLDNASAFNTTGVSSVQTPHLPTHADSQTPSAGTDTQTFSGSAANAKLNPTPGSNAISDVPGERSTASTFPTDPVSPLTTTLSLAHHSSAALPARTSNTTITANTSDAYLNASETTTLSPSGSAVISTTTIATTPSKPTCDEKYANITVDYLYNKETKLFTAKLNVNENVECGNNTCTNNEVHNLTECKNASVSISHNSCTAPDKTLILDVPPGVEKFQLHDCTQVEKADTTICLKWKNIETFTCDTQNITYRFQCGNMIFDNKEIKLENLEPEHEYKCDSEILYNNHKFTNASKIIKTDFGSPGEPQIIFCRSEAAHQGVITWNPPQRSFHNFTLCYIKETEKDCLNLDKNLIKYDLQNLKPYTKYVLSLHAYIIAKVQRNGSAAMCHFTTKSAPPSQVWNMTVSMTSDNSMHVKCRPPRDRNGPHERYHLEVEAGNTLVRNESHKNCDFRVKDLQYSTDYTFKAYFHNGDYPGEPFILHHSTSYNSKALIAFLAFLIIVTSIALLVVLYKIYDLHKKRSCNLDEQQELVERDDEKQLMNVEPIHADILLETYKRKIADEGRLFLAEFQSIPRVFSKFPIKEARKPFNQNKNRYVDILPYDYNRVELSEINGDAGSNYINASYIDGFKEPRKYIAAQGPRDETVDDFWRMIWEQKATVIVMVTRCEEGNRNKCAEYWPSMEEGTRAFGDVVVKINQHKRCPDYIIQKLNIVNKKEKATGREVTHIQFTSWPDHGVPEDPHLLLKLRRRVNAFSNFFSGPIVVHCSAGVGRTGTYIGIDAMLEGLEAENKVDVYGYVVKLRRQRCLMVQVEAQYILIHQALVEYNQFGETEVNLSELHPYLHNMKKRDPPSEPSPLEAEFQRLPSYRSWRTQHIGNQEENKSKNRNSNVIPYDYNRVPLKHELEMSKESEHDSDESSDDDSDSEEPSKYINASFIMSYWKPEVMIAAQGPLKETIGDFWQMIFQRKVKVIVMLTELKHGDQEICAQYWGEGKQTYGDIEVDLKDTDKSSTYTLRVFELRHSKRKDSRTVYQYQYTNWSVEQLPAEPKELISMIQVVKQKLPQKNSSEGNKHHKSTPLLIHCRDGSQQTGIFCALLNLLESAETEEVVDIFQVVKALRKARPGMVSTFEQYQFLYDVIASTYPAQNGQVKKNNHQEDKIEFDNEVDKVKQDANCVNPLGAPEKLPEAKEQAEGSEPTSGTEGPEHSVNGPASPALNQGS
T1 sequence (P18031 1-321): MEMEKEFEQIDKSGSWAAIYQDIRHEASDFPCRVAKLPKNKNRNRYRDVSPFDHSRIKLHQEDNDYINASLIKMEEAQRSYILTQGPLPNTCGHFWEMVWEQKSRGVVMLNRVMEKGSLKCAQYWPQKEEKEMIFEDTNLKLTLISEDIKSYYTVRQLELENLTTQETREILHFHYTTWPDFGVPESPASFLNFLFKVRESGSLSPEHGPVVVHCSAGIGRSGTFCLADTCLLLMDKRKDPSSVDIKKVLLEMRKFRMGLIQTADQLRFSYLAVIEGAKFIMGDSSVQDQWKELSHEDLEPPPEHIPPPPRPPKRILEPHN
SHP1, sequence (P29350 whole entry): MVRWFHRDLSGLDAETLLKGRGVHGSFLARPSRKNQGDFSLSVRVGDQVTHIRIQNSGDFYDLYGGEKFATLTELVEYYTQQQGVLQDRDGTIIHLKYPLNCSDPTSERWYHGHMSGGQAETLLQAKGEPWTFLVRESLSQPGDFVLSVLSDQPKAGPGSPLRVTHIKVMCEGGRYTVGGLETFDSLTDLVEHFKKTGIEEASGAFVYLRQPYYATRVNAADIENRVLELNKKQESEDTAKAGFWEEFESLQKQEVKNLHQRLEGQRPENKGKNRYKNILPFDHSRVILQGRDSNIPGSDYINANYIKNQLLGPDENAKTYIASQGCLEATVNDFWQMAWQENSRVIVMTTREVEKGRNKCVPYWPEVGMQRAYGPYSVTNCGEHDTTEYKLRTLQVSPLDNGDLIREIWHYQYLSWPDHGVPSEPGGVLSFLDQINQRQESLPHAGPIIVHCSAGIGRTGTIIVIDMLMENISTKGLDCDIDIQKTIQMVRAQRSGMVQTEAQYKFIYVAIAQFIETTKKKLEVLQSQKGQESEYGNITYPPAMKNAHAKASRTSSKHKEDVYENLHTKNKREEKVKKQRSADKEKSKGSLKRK
PTPRO, sequence (Q16827 30-1216): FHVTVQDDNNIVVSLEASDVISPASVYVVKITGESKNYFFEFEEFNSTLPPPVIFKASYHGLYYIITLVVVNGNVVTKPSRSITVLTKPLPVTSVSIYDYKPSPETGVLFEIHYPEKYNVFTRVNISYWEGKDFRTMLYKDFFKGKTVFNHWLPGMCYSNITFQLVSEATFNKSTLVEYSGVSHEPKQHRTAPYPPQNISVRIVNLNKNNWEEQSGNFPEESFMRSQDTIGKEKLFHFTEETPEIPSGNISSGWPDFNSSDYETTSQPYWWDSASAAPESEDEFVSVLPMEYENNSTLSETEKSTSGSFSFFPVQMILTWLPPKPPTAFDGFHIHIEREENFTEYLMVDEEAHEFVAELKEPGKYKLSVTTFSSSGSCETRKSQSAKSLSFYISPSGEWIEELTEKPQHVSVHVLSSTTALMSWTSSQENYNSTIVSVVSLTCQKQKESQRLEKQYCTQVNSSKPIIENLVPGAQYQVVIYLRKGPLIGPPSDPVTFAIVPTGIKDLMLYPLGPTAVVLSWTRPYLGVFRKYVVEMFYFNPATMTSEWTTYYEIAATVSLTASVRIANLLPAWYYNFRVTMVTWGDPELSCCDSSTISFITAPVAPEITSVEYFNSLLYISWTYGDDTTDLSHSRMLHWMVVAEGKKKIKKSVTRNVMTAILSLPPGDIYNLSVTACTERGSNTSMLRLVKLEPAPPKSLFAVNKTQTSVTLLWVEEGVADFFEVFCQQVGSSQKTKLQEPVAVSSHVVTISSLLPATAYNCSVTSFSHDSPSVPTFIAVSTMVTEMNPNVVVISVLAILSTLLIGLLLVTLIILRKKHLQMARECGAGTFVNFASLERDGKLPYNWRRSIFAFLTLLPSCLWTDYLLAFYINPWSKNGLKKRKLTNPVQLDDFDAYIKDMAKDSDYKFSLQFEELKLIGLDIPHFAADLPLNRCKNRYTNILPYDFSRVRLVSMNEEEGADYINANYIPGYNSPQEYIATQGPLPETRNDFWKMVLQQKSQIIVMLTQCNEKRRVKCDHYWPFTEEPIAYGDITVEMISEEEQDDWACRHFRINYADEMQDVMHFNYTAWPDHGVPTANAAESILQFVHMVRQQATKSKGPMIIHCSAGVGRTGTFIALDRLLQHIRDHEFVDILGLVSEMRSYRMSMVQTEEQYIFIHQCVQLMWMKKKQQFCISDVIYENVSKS
HePTP, sequence (P35236 whole entry, species assumed): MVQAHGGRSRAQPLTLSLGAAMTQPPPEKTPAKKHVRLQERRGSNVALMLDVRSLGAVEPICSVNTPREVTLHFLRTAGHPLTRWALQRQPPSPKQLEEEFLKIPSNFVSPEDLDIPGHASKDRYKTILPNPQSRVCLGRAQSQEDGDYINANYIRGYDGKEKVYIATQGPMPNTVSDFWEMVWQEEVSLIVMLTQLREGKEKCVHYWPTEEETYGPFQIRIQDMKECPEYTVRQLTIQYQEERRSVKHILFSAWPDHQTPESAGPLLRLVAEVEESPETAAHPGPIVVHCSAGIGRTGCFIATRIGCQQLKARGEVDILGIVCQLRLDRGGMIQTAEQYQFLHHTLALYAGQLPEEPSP

`C[C@@H]1NC(=O)[C@H](CCCNC(=N)N)NC(=O)[C@H](Cc2ccc3ccccc3c2)NC(=O)[C@@H]2CCCCN2C(=O)[C@@H]([C@H](C)O)NC(=O)[C@H](c2ccccc2)NC(=O)[C@H](Cc2c[nH]cn2)NC(=O)c2cc3cc(c2)C(=O)NC[C@H](NC(=O)[C@@H](C)NC1=O)C(=O)N[C@@H](Cc1ccccc1)C(=O)N[C@@H](Cc1ccc2ccccc2c1)C(=O)N[C@@H](CCCNC(=N)N)C(=O)N[C@@H](CCCNC(=N)N)C(=O)N[C@@H](CCCNC(=N)N)C(=O)N[C@@H](CCCNC(=N)N)C(=O)N[C@H](C(=O)N[C@@H](CCCCN)C(N)=O)CNC3=O` [Peptide 8, bicyclo[Tm-(His-Phg-D-Thr-Pip-Nal-Arg-Ala-D-Ala)-Dap-(Phe-Nal-Arg-Arg-Arg-Arg-Dap)]-Lys] (H[Phg][dT][Pip][2Nal]RA[dA][Dap]F[2Nal]RRRR[Dap]K-NH2; linker N-9-16 via Trimesoyl; C-terminus assumed): at CAL-PDZ domain, the “Binding to CAL-PDZ domain” value was “no detectable binding”. Further, the “Intracellular FITC fluorescence (confocal)” value in the series on HeLa cells [1] is “intense and diffuse fluorescence throughout the entire cell”. Besides, the “ΔF508-CFTR at the cell surface” value in series [2] is given as “much greater amounts of the protein at the cell surface”. For the same compound, the “Ion channel activity of ΔF508-CFTR” value in the series with ΔF508-CFTR CFBE cells is given as “acted synergistically”. In addition, in the series on HeLa cells [3], the “Effect on cell growth” value is given as “inhibited cell growth, but to a lesser extent than inhibitor 7”.

On PTP1B, `CC(C)[C@H]1NC(=O)[C@H](CO)NC(=O)[C@H](CCC(N)=O)NC(=O)[C@H](Cc2ccccc2)NC(=O)[C@H](Cc2ccc3ccccc3c2)NC(=O)[C@H](CCCNC(=N)N)NC(=O)[C@H](CCCNC(=N)N)NC(=O)[C@H](CCCNC(=N)N)NC(=O)[C@H](CCCNC(=N)N)NC(=O)[C@H](Cc2c[nH]cn2)NC(=O)[C@H](Cc2ccc(C(F)(F)P(=O)(O)O)cc2)NC(=O)[C@@H]2CCCN2C1=O` [Monocyclic Inhibitor 2, cyclo(Ser-D-Val-Pro-F2Pmp-His-Arg-Arg-Arg-Arg-Nal-Phe-Gln)] (cyclo(S[dV]P[F2Pmp]HRRRR[2Nal]FQ)) yielded an IC50 of approximately 30 nM. Moreover, the “Cellular uptake (confocal)” value in the series on A549 lung cancer cells is reported as “poor cellular uptake”.

Consider `CC(C)[C@H]1NC(=O)[C@H](CO)NC(=O)c2cc3cc(c2)C(=O)NC[C@H](NC(=O)[C@H](Cc2c[nH]cn2)NC(=O)[C@H](Cc2ccc(C(F)(F)P(=O)(O)O)cc2)NC(=O)[C@@H]2CCCN2C1=O)C(=O)N[C@@H](CCCNC(=N)N)C(=O)N[C@@H](CCCNC(=N)N)C(=O)N[C@@H](CCCNC(=N)N)C(=O)N[C@@H](CCCNC(=N)N)C(=O)N[C@@H](Cc1ccc2ccccc2c1)C(=O)N[C@@H](Cc1ccccc1)C(=O)N[C@H](C(=O)N[C@@H](CCCCN)C(N)=O)CNC3=O` [Bicyclic Inhibitor 4] (S[dV]P[F2Pmp]H[Dap]RRRR[2Nal]F[Dap]K-NH2; linker N-6-13 via Trimesoyl; C-terminus assumed), for which the inhibition at 1 µM at HePTP, against PTPH1, against PTPRC, at PTPRO and at SHP1 was less than 10% in each case. Further, the metabolised at 24 h, 5 μM in series [4] is approximately 10%.
